Assay results as given in patent US20140358576A1, “SYSTEM AND METHOD FOR SURVEILLANCE AND EVALUATION OF SAFETY RISKS ASSOCIATED WITH MEDICAL INTERVENTIONS” (Adverse Events, Inc., priority 2013, published 2014).
Counter-ions that a name gives are not always drawn. Like-named read-outs stand apart in the source and are kept apart here. Numbered stars: 1 amine (or outer) side, 2 acyl side, 3 side chain; on linkers, the order of the positions; unused ones are H or OH. Bridge positions count the residues as written; N and C are the ends. Square brackets hold non-standard residues; d marks the D form. Peptide text beside a SMILES is read from it. * marks the point of attachment. hTyr(3S-OH,4S-OH,3'-OSO3H) = N[C@H](C(=O)O)[C@H](O)[C@@H](O)c1ccc(O)c(OS(=O)(=O)O)c1; Orn(4R-OH,5R-OH) = O=C([C@H](C[C@@H](O)[C@@H](O)N[*:3])N[*:1])[*:2]; Pro(3S-OH,4S-Me) = C[C@H]1CN[C@H](C(=O)O)[C@H]1O; X1 = CCCCCOc1ccc(-c2cc(-c3ccc(C(=O)*)cc3)no2)cc1; Gln(3R-OH) = NC(=O)C[C@@H](O)[C@H](N)C(=O)O; Hyp = O=C(O)[C@@H]1C[C@@H](O)CN1

How the values were obtained:
[1] = human
[2] = for Adverse Event Seriousness / Literature / Outcome / ROR / RxScore: human; for Condition Seriousness: Example 1 component score, up to 8.68 points

Structure (SMILES) | Adverse Event Seriousness [1] | Outcome [1] | ROR [1] | RxScore [1] | also measured
CCC1(c2ccccc2)C(=O)NCNC1=O [primidone] | 8.70 | 10.86 | 3.59 | 42.07 | –
O=P(O)(O)C(O)(Cn1ccnc1)P(=O)(O)O [zoledronic acid (Zometa), zoledronic acid] | 14.61 | 7.55 | 10.08 | 53.50 | –
O=C1NC(=O)C(c2ccccc2)(c2ccccc2)N1 [phenytoin sodium] | 8.38 | 12.65 | 5.12 | 44.47 | –
CC(OC(=O)NCC1(CC(=O)O)CCCCC1)OC(=O)C(C)C (stereo not drawn) [gabapentin enacarbil] | 4.67 | 7.53 | 2.64 | 42.19 | –
CCCCCC(=O)O[C@]1(C(C)=O)CC[C@H]2[C@@H]3CCC4=CC(=O)CC[C@]4(C)[C@H]3CC[C@@]21C [hydroxyprogesterone caproate] | – | – | 12.09 | – | –
CN1CCN(C2=Nc3cc(Cl)ccc3Nc3ccccc32)CC1 [clozapine] | 16.28 | 23.55 | – | – | –
Nc1cccc2c1C(=O)N(C1CCC(=O)NC1=O)C2=O (stereo not drawn) [pomalidomide] | – | 25.31 | – | – | –
NCC1(CC(=O)O)CCCCC1 [gabapentin] | 9.67 | 11.51 | 2.86 | 43.00 | –
CN[C@@H](C)Cc1ccccc1 [methamphetamine hydrochloride] | 15.73 | 20.20 | 12.29 | 78.80 | –
Nc1nc(F)nc2c1ncn2[C@@H]1O[C@H](CO)[C@@H](O)[C@@H]1O [fludarabine] | – | – | – | – | Adverse Event Seriousness [2]: 12.69; Literature [2]: 12.5; Outcome [2]: 15.34; ROR [2]: 4.60; RxScore [2]: 78.34
NCCC(O)(P(=O)(O)O)P(=O)(O)O [pamidronate disodium] | 12.75 | 6.73 | 11.49 | 51.86 | –
C[C@H]1[C@H](NC(=O)/C(=N\OC(C)(C)C(=O)O)c2csc(N)n2)C(=O)N1S(=O)(=O)O [aztreonam] | 14.58 | 22.41 | 5.83 | 75.34 | –
COc1ccccc1Oc1c(NS(=O)(=O)c2ccc(C(C)(C)C)cc2)nc(-c2ncccn2)nc1OCCO [bosentan] | – | – | – | – | Condition Seriousness [2]: 2.07; ROR [2]: 3.81; RxScore [2]: 81.44
CC(C)C[C@H](NC(=O)[C@H](CCc1ccccc1)NC(=O)CN1CCOCC1)C(=O)N[C@@H](Cc1ccccc1)C(=O)N[C@@H](CC(C)C)C(=O)[C@@]1(C)CO1 [carfilzomib] | – | 22.81 | – | – | –
O=C1CN=C(c2ccccc2Cl)c2cc([N+](=O)[O-])ccc2N1 [clonazepam] | 11.38 | 15.34 | 3.43 | 51.36 | –
CC1(C)O[C@@H]2[C@@H](CO[C@@]3(COS(N)(=O)=O)OC(C)(C)O[C@@H]23)O1 [topiramate] | 11.28 | 11.96 | 4.29 | 47.54 | –
CCC1(C)CC(=O)NC1=O (stereo not drawn) [ethosuximide] | 7.71 | 10.64 | 2.92 | 41.01 | –
NC(=O)OCC(COC(N)=O)c1ccccc1 [felbamate] | 7.72 | 14.26 | 2.81 | 43.92 | –
CCCC(C)(COC(N)=O)COC(=O)NC(C)C (stereo not drawn) [carisoprodol] | 17.03 | 26.05 | 9.07 | 83.70 | –
CN1CC[C@]23c4c5ccc(O)c4O[C@H]2C(=O)CC[C@@]3(O)[C@H]1C5 [oxymorphone] | – | – | – | – | Adverse Event Seriousness [2]: 6.21; Literature [2]: 18.8; Outcome [2]: 10.33; ROR [2]: 3.98; RxScore [2]: 77.03
NS(=O)(=O)Cc1noc2ccccc12 [zonisamide] | 11.03 | 13.71 | 4.73 | 49.83 | –
NCCCC(O)(P(=O)(O)O)P(=O)(O)O [alendronate] | – | – | – | – | Condition Seriousness [2]: 7.02; Literature [2]: 5.0
CCCC(CCC)C(=O)O [divalproex sodium] | 8.51 | 11.14 | 3.85 | 41.09 | –
Nc1nc(Cl)nc2c1ncn2[C@@H]1O[C@H](CO)[C@@H](O)[C@@H]1F [clofarabine] | – | 23.27 | – | – | –
CC(C)C[C@H](CN)CC(=O)O [pregabalin] | 7.13 | 8.25 | 2.21 | 36.30 | –
[N]=O [nitric oxide] | 19.58 | – | – | – | –

Structure (SMILES) | Adverse Event Seriousness [1] | Outcome [1] | ROR [1] | RxScore [1] | also measured
CCCC(CCC)C(=O)[O-].[Na+] [valproate sodium] | 10.26 | 13.09 | 5.64 | 48.83 | –
CCCCCN(C)CCC(O)(P(=O)(O)O)P(=O)(O)O [ibandronate sodium] | 10.42 | 13.02 | 3.13 | 45.79 | –
CN1C(=O)C(O)N=C(c2ccccc2)c2cc(Cl)ccc21 (stereo not drawn) [temazepam] | 12.79 | 22.08 | 5.17 | 72.69 | –
CCCCC[C@H](O)/C=C/[C@H]1[C@H](O)CC(=O)[C@@H]1C/C=C\CCCC(=O)O [dinoprostone] | 15.66 | 19.09 | 10.62 | 74.95 | –
Cc1nnc2n1-c1ccc(Cl)cc1C(c1ccccc1)=NC2 [alprazolam] | 13.30 | 21.02 | 6.40 | 72.84 | –
COC(=O)C(c1ccccc1)C1CCCCN1 (stereo not drawn) [methylphenidate] | – | – | 13.69 | – | –
CC(C)(N)Cc1ccccc1 [phentermine] | – | – | 12.22 | – | –
CC[C@H]1OC(=O)[C@H](C)[C@@H](O[C@H]2C[C@@](C)(OC)[C@@H](O)[C@H](C)O2)[C@H](C)[C@@H](O[C@@H]2O[C@H](C)C[C@H](N(C)C)[C@H]2O)[C@](C)(O)C[C@@H](C)CN(C)[C@H](C)[C@@H](O)[C@]1(C)O [azithromycin] | – | – | 13.60 | – | –
CN(C)CCC=C1c2ccccc2C=Cc2ccccc21 [cyclobenzaprine hydrochloride] | 12.25 | 22.45 | 6.09 | 72.46 | –
C=CC(N)CCC(=O)O (stereo not drawn) [vigabatrin] | 13.32 | 13.81 | 4.80 | 51.42 | –
CCCC(CCC)C(=O)O [valproic acid] | 12.54 | 16.41 | 5.34 | 54.78 | –
O=P(O)(O)C(O)(Cn1ccnc1)P(=O)(O)O [zoledronic acid (Reclast), zoledronic acid] | 12.33 | 16.89 | 3.53 | 53.23 | –
O=C1NC(c2ccccc2)(c2ccccc2)C(=O)N1COP(=O)(O)O [fosphenytoin sodium] | 8.16 | 15.85 | 5.09 | 46.69 | –
C=C[C@]1(C)C[C@@H](OC(=O)CS[C@@H]2C[C@H]3CC[C@@H](C2)N3C)[C@]2(C)[C@H](C)CC[C@]3(CCC(=O)[C@H]32)[C@@H](C)[C@@H]1O [retapamulin] | – | – | 12.35 | – | –
CNC[C@H](O)c1ccc(O)c(O)c1 [epinephrine injection, epinephrine] | 4.69 | 21.03 | 16.91 | 73.02 | –
Cc1ccsc1C(=CCCN1CCC[C@@H](C(=O)O)C1)c1sccc1C [tiagabine hydrochloride] | 10.82 | 12.04 | 6.41 | 48.70 | –
C[C@]12CC[C@@H]3c4ccc(O)cc4CC[C@H]3[C@@H]1CC[C@@H]2O [estradiol] | 20.16 | – | 13.26 | – | –
Nc1nnc(-c2cccc(Cl)c2Cl)c(N)n1 [lamotrigine] | 8.89 | 10.41 | 3.57 | 42.04 | –
CC(=O)O[C@]1(C(C)=O)CC[C@H]2[C@@H]3C[C@H](C)C4=CC(=O)CC[C@]4(C)[C@H]3CC[C@@]21C [medroxyprogesterone acetate] | 19.89 | – | 12.89 | – | –
O=C1CCCC(=O)C1C(=O)c1ccc(C(F)(F)F)cc1[N+](=O)[O-] [nitisinone] | 15.20 | 23.09 | 5.32 | 74.78 | –
C#Cc1cccc(Nc2ncnc3cc(OCCOC)c(OCCOC)cc23)c1 [erlotinib hydrochloride] | 18.95 | – | – | – | –
CN1CCC(=C2c3ccccc3CCn3c(C=O)cnc32)CC1 [alcaftadine] | – | – | 12.53 | – | –
N#Cc1ccccc1-c1cc(-c2ccccn2)cn(-c2ccccc2)c1=O [perampanel] | 7.92 | 14.67 | 3.53 | 47.40 | –
O=C1CCC(N2C(=O)c3ccccc3C2=O)C(=O)N1 (stereo not drawn) [thalidomide] | 17.30 | 22.64 | – | – | –
CCCCCOc1ccc(-c2cc(-c3ccc(C(=O)N[C@H]4C[C@@H](O)[C@@H](O)NC(=O)[C@@H]5[C@@H](O)[C@@H](C)CN5C(=O)[C@H]([C@H](O)CC(N)=O)NC(=O)[C@H]([C@H](O)[C@@H](O)c5ccc(O)c(OS(=O)(=O)O)c5)NC(=O)[C@@H]5C[C@@H](O)CN5C(=O)[C@H]([C@@H](C)O)NC4=O)cc3)no2)cc1 [micafungin sodium] (X1-[Orn(4R-OH,5R-OH)]T[Hyp][hTyr(3S-OH,4S-OH,3'-OSO3H)][Gln(3R-OH)][Pro(3S-OH,4S-Me)]; lactam 1-C) | – | 22.48 | – | – | –
